Data on 8 compounds can be found in ChEMBL document CHEMBL1140928, “Glycolipids and benzylammonium lipids as novel antisepsis agents: synthesis and biological characterization” (J Med Chem, 2009).

The source made the active and inactive calls. No cut-off for these calls is given here. Where only a bound is given, the exact number is not on record here.

A short description of data set [1]: Inhibition of lipid A-mediated TLR4 activation in HEK-Blue-4 cells assessed as inhibition of alkaline phosphatase activity by spectrophotometry. Type of data set: cell-based.
For data set [2], the system named is Mus musculus. The data set can be described thus: Antisepsis activity in LPS-induced ip dosed C57BL/6J mouse lethal endotoxin shock model assessed as survival after 4 days administered 30 before LPS challenge. Type of data set: functional.
A short description of data set [3]: Inhibition of lipid A-induced TLR4 activation in HEK-Blue-4 cells assessed as inhibition of alkaline phosphatase activity at 10 uM by spectrophotometry. Type of data set: cell-based.
The subject of data set [4] is Mus musculus. The data set can be described thus: Antisepsis activity in LPS-induced C57BL/6J mouse lethal endotoxin shock model assessed as survival after 4 days at 3 mg/kg, ip administered 30 before LPS challenge. The data set is classed as functional. The note with it: 96 h, route intraperitoneal.
Data set [5] deals with Intestinal-type alkaline phosphatase (Bos taurus) (UniProt P19111). The data set can be described thus: Inhibition of calf recombinant intestinal alkaline phosphatase at 10 uM.
Sequence of Intestinal-type alkaline phosphatase (Bos taurus) (P19111 20-506 limits assumed): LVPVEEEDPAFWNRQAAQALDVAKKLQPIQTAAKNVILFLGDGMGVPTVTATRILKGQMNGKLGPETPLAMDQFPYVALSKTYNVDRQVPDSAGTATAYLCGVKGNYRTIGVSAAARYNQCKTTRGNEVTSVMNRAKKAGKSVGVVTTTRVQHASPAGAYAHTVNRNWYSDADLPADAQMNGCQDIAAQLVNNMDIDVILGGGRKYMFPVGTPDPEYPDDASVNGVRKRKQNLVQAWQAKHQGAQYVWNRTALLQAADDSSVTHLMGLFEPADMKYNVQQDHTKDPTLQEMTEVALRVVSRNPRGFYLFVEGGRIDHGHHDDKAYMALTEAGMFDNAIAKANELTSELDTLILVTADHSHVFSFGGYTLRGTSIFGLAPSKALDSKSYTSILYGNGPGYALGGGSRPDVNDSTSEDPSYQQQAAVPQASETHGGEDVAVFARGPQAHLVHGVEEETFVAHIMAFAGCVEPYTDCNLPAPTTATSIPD
Data set [6] addresses Intestinal-type alkaline phosphatase (Homo sapiens) (UniProt P09923). Briefly: Inhibition of intestinal alkaline phosphatase in lipid A-stimulated HEK-Blue-4 cells at 10 uM.
A short description of data set [7]: Cytotoxicity against HEK-Blue-4 cells assessed as effect on cell viability by Cell-Titre Blue assay. The data set is classed as cell-based. The note with it: human.
A further data set is filed under the species Homo sapiens. Briefly: Inhibition of TNF-alpha-induced alkaline phosphatase activity in HEK-Blue-4 cells at 10 uM by spectrophotometry. The data set is classed as functional, cell-based.
In data set [8] the test system is Mus musculus. The data set can be described thus: Antisepsis activity in LPS-induced C57BL/6J mouse lethal endotoxin shock model assessed as survival after 4 days at 10 mg/kg, ip administered 30 before LPS challenge. The data set is classed as functional. As to conditions: for survival at 10 mg/kg: 96 h, route intraperitoneal.
Data set [9] is described as follows: Cytotoxicity against HEK-Blue-4 cells assessed as diminution of cell viability by Cell-Titre Blue assay. As to conditions: human. Type of data set: cell-based.

Sequence of Intestinal-type alkaline phosphatase (Homo sapiens) (P09923 20-503 limits assumed): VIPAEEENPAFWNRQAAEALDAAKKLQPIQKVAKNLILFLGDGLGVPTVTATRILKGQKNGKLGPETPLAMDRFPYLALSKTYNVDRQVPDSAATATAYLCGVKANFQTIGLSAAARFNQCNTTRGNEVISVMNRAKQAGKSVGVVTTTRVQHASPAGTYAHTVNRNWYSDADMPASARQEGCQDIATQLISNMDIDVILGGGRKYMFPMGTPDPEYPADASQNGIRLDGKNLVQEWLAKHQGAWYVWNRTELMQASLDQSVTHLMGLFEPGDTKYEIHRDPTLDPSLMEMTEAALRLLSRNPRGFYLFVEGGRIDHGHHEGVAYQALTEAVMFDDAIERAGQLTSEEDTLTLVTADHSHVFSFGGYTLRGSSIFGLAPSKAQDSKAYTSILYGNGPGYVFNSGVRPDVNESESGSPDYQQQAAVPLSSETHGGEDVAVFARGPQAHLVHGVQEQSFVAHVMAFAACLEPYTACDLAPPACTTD

Usually IC50 stands for the point on the concentration scale where inhibition reaches its midpoint. Consider `CCCCCCCCCCCCCCO[C@H]1[C@@H](OC)O[C@H](COC2CCCC2)[C@@H](O)[C@@H]1OCCCCCCCCCCCCCC`, for which the half-maximal inhibitory concentration (IC50) in data set [1] was more than 10 µM.
The term ED50 denotes the dose at which the effect has come halfway, by size or by number of responders. In the case of `CCOC(=O)C1=CCCC[C@H]1S(=O)(=O)Nc1ccc(F)cc1Cl` [RESATORVID], the ED50 in the data set with Mus musculus [2] (96 h) worked out at 0.3 mg/kg.
A word on the inhibition: it is the share of the control response that was lost under treatment. In the case of `CCCCCCCCCCCCCCO[C@H]1[C@@H](OC)O[C@H](CNC2CCCC2)[C@@H](O)[C@@H]1OCCCCCCCCCCCCCC`, in the data set with Mus musculus [2], the result was inactive. The IC50 in data set [1] was more than 10 µM. In [3], the inhibition worked out at 23%.
For the compound `CCCCCCCCCCCCCCO[C@H]1[C@@H](OC)O[C@H](CN)[C@@H](O)[C@@H]1OCCCCCCCCCCCCCC`, the survival at 3 mg/kg with Mus musculus [4] is 100%. The outcome (in data set [5]; in data set [6]; in the data set filed under Homo sapiens) was inactive. In addition, the Activity entry is “Non-toxic” in data set [7] and “Dose-dependent effect” in data set [3]. Moreover, the half-maximal inhibitory concentration (IC50) in data set [1] stood at 5.49 µM. For the same compound, the outcome with Mus musculus [8] was Active.
Take `CCCCCCCCCCCCCCO[C@H]1[C@@H](OC)O[C@H](CNOC)[C@@H](O)[C@@H]1OCCCCCCCCCCCCCC`: the IC50 in [1] is more than 10 µM.
Turning to `CCCCCCCCCCCCCCO[C@H]1[C@@H](OC)O[C@H](C[N+](C)(C)C2CCCC2)[C@@H](O)[C@@H]1OCCCCCCCCCCCCCC.[I-]`, the result (in data set [5]; in data set [6]; in the data set listed under Homo sapiens) was inactive. For the same compound, the Activity entry in [7] was “Non-toxic”; in [3], “Dose-dependent effect”. Moreover, in data set [1], the concentration for half-maximal inhibition (IC50) worked out at 5.01 µM. For the same compound, the survival at 10 mg/kg in the data set with Mus musculus [8] is 25%.
As for `CCCCCCCCCCCCCCO[C@H]1[C@@H](OC)O[C@H](CNC(=O)C2CCCN2)[C@@H](O)[C@@H]1OCCCCCCCCCCCCCC` (some centres not stated), the result in data set [5] was inactive. Moreover, the Activity result was “Non-toxic” in [7] and “Dose-dependent effect” in data set [3]. In addition, the half-inhibitory concentration (IC50) in [1] was found to be 5.87 µM.
Regarding `CCCCCCCCCCCCCCOc1ccc(C[N+](C)(C)C2CCCC2)cc1OCCCCCCCCCCCCCC.[I-]`, the outcome (in [5]; in data set [6]; in the data set listed under Homo sapiens) was inactive. The IC50 in data set [1] amounted to 1.68 µM. The Activity entry in data set [3] was “Dose-dependent effect”; in data set [9], 13%. Also, in the data set on Mus musculus [8], the survival at 10 mg/kg worked out at 67%.
